Data reported in the supplement of paper PMC10627819.
Values after ≈ are worked out from the molar mass of the structure shown.

Columns and labels:
B. subtilis 168 [1] = system: B. subtilis 168
S. aureus DSM 20231 [2] = system: S. aureus DSM 20231
S. aureus Newman [3] = system: S. aureus Newman
S. pneumoniae D39V [4] = system: S. pneumoniae D39V
B. subtilis 168 [5] = assay: fitness (endpoint OD595 vs no drug) (fraction); higher = more growth
Summary of the method: (§1)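 Plates with 384 wells were inoculated at OD595 0.01 using 30 µl of TSB, LB Lennox or CY, or 55 µl for S. pneumoniae. Incubation was at 37 °C, with OD595 measured every 30 min for 14 h. Fitness is the stationary-phase transition optical density over the robust mean of no-drug control wells, after first-reading background subtraction; it is capped at 1.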

S. aureus DSM 20231 [6] = assay: as above
Summary of the method: as §1

S. aureus Newman [7] = assay: as above
Summary of the method: as §1

S. pneumoniae D39V [8] = assay: as above
Summary of the method: as §1

B. subtilis 168 [9] = assay: Bliss interaction score (quartile over a dose matrix) (fitness difference); higher = more antagonism (negative = synergy)
Summary of the method: (§2)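 Fitness was OD595 at entry into stationary phase divided by the plate's robust no-drug mean and capped at 1; single-drug fitness was inferred from combination data. The Bliss score is observed minus expected (product) fitness, summarised by quartiles over technical, biological and donor/recipient replicates.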

S. aureus DSM 20231 [10] = assay: as above
Summary of the method: as §2

S. aureus Newman [11] = assay: as above
Summary of the method: as §2

S. pneumoniae D39V [12] = assay: as above
Summary of the method: as §2
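For Bliss interaction score (quartile over a dose matrix) in this document: first quartile when negative (synergy) and third quartile when positive (antagonism).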

CC[C@H](C)[C@H](N)C1=N[C@H](C(=O)N[C@@H](CC(C)C)C(=O)N[C@H](CCC(=O)O)C(=O)N[C@H](C(=O)N[C@H]2CCCCNC(=O)[C@H](CC(N)=O)NC(=O)[C@@H](CC(=O)O)NC(=O)[C@H](Cc3cnc[nH]3)NC(=O)[C@@H](Cc3ccccc3)NC(=O)[C@H]([C@@H](C)CC)NC(=O)[C@@H](CCCN)NC2=O)[C@@H](C)CC)CS1 [Bacitracin]
main component drawn
Details	MIC [mg/L]
B. subtilis 168 [1]	300 (≈ 211 µM)
S. aureus DSM 20231 [2]	80 (≈ 56.2 µM)
S. aureus Newman [3]	75 (≈ 52.7 µM)
S. pneumoniae D39V [4]	1.17 (≈ 0.824 µM)

fitness, main component drawn
Details	18.75 µg/mL	37.5 µg/mL	75 µg/mL	150 µg/mL
B. subtilis 168 [5]	–	0.936	0.912	0.802
S. aureus DSM 20231 [6]	0.628	0.0499	0.0064	–
S. aureus Newman [7]	0.683	0.275	0	–

CC[C@H]1OC(=O)[C@H](C)[C@@H](O[C@H]2C[C@@](C)(OC)[C@@H](O)[C@H](C)O2)[C@H](C)[C@@H](O[C@@H]2O[C@H](C)C[C@H](N(C)C)[C@H]2O)[C@](C)(O)C[C@@H](C)C(=O)[C@H](C)[C@@H](O)[C@]1(C)O [Erythromycin]
Details	MIC [mg/L]
S. aureus DSM 20231 [2]	0.5 (≈ 0.681 µM)
S. aureus Newman [3]	0.5 (≈ 0.681 µM)
S. pneumoniae D39V [4]	0.123 (≈ 0.168 µM)

fitness
Details	0.0312 µg/mL	0.0625 µg/mL	0.125 µg/mL	0.25 µg/mL	0.5 µg/mL
B. subtilis 168 [5]	0.926	0.704	0.0499	0.0212	–
S. aureus Newman [7]	0.964	0.889	0.594	0.111	0.0101

CC(=O)NC[C@H]1CN(c2ccc(N3CCOCC3)c(F)c2)C(=O)O1 [Linezolid]
Details	MIC [mg/L]
B. subtilis 168 [1]	0.5 (≈ 1.48 µM)

fitness
Details	0.125 µg/mL	0.2 µg/mL	0.25 µg/mL	0.4 µg/mL	0.5 µg/mL	0.8 µg/mL
B. subtilis 168 [5]	0.722	–	0.239	–	0.0555	–
S. aureus DSM 20231 [6]	0.923	–	0.648	–	0.16	–
S. pneumoniae D39V [8]	–	0.665	–	0.412	–	0.227

CO[C@@]12[C@H](COC(N)=O)C3=C(C(=O)C(C)=C(N)C3=O)N1C[C@@H]1N[C@@H]12 [Mitomycin C]
Details	MIC [mg/L]
B. subtilis 168 [1]	0.25 (≈ 0.748 µM)
S. aureus DSM 20231 [2]	0.069 (≈ 0.206 µM)
S. aureus Newman [3]	0.069 (≈ 0.206 µM)
S. pneumoniae D39V [4]	0.062 (≈ 0.185 µM)

Details	fitness
B. subtilis 168 [5], 0.0312 µg/mL	0.78
B. subtilis 168 [5], 0.0625 µg/mL	0.582
B. subtilis 168 [5], 0.125 µg/mL	0.0244
S. aureus DSM 20231 [6], 0.0156 µg/mL	0.844
S. aureus DSM 20231 [6], 0.0312 µg/mL	0.775
S. aureus DSM 20231 [6], 0.0625 µg/mL	0.59
S. aureus DSM 20231 [6], 0.1562 µg/mL	0.886
S. aureus Newman [7], 0.0156 µg/mL	0.71
S. aureus Newman [7], 0.0312 µg/mL	0.618
S. aureus Newman [7], 0.0625 µg/mL	0.452
S. pneumoniae D39V [8], 0.002 µg/mL	0.823
S. pneumoniae D39V [8], 0.004 µg/mL	0.754
S. pneumoniae D39V [8], 0.008 µg/mL	0.554

CO[C@@H]1[C@@H](OC(N)=O)[C@@H](O)[C@H](Oc2ccc3c(O)c(NC(=O)c4ccc(O)c(CC=C(C)C)c4)c(=O)oc3c2C)OC1(C)C [Novobiocin]
Details	MIC [mg/L]
S. aureus DSM 20231 [2]	0.05 (≈ 0.0816 µM)
S. aureus Newman [3]	0.05 (≈ 0.0816 µM)
S. pneumoniae D39V [4]	2.5 (≈ 4.08 µM)

B. subtilis 168 [5]
Details	fitness
0.0125 µg/mL	0.921
0.025 µg/mL	0.956
0.05 µg/mL	0.986
0.1 µg/mL	0.993
0.2 µg/mL	≥ 1

CN[C@H](CC(C)C)C(=O)N[C@H]1C(=O)N[C@@H](CC(N)=O)C(=O)N[C@H]2C(=O)N[C@H]3C(=O)N[C@H](C(=O)N[C@H](C(=O)O)c4cc(O)cc(O)c4-c4cc3ccc4O)[C@H](O[C@H]3C[C@](C)(N)[C@@H](O)[C@H](C)O3)c3ccc(c(Cl)c3)Oc3cc2cc(c3O[C@@H]2O[C@H](CO)[C@@H](O)[C@H](O)[C@H]2O[C@H]2C[C@](C)(NCc3ccc(-c4ccc(Cl)cc4)cc3)[C@@H](O)[C@H](C)O2)Oc2ccc(cc2Cl)[C@H]1O [Oritavancin]
Details	MIC [mg/L]
S. aureus DSM 20231 [2]	4.5 (≈ 2.51 µM)
S. aureus Newman [3]	4.5 (≈ 2.51 µM)

CO[C@H]1/C=C/O[C@@]2(C)Oc3c(C)c(O)c4c(O)c(c(/C=N/N5CCN(C)CC5)c(O)c4c3C2=O)NC(=O)/C(C)=C\C=C\[C@H](C)[C@H](O)[C@@H](C)[C@@H](O)[C@@H](C)[C@H](OC(C)=O)[C@@H]1C [Rifampicin]
Details	MIC [mg/L]
B. subtilis 168 [1]	0.125 (≈ 0.152 µM)
S. aureus DSM 20231 [2]	0.018 (≈ 0.0219 µM)
S. aureus Newman [3]	0.035 (≈ 0.0425 µM)
S. pneumoniae D39V [4]	0.4 (≈ 0.486 µM)

S. pneumoniae D39V [8]
Details	fitness
0.025 µg/mL	0.961
0.05 µg/mL	0.904
0.1 µg/mL	0.322
0.2 µg/mL	0.144

CN[C@@H]1[C@H](O)[C@H](NC)[C@H]2O[C@@]3(O)C(=O)C[C@@H](C)O[C@H]3O[C@@H]2[C@H]1O [Spectinomycin]
Details	MIC [mg/L]
B. subtilis 168 [1]	8 (≈ 24.1 µM)
S. aureus DSM 20231 [2]	16 (≈ 48.1 µM)
S. aureus Newman [3]	16 (≈ 48.1 µM)
S. pneumoniae D39V [4]	64 (≈ 193 µM)

fitness
Details	B. subtilis 168 [5]	S. aureus DSM 20231 [6]	S. aureus Newman [7]	S. pneumoniae D39V [8]
2 µg/mL	0.992	–	–	–
4 µg/mL	0.964	0.966	0.963	0.956
8 µg/mL	0.941	0.961	0.93	0.865
16 µg/mL	–	0.851	0.893	0.702

CN[C@@H]1[C@H](O)[C@H](NC)[C@H]2O[C@@]3(O)C(=O)C[C@@H](C)O[C@H]3O[C@@H]2[C@H]1O [Spectinomycin] + CC1=C\[C@@H](O)CC(=O)Cc2nc(co2)C(=O)N2CCC=C2C(=O)O[C@H](C(C)C)[C@H](C)/C=C/C(=O)NC\C=C\1 [Virginiamycin M1]
fitness
Details	first compound 2 µg/mL	first compound 4 µg/mL	first compound 8 µg/mL	first compound 16 µg/mL
B. subtilis 168 [5], partner 0.0625 µg/mL	0.916	0.979	0.915	–
B. subtilis 168 [5], partner 0.125 µg/mL	0.982	0.941	0.947	–
B. subtilis 168 [5], partner 0.25 µg/mL	≥ 1	0.972	0.875	–
S. aureus DSM 20231 [6], partner 0.0625 µg/mL	–	0.933	0.993	0.809
S. aureus DSM 20231 [6], partner 0.125 µg/mL	–	≥ 1	0.896	0.83
S. aureus DSM 20231 [6], partner 0.25 µg/mL	–	0.961	0.873	0.791
S. aureus Newman [7], partner 0.0625 µg/mL	–	0.936	0.997	0.934
S. aureus Newman [7], partner 0.125 µg/mL	–	0.944	≥ 1	0.961
S. aureus Newman [7], partner 0.25 µg/mL	–	0.942	≥ 1	0.937
S. pneumoniae D39V [8], partner 0.5 µg/mL	–	0.972	0.93	–
S. pneumoniae D39V [8], partner 1 µg/mL	–	0.96	0.916	–
S. pneumoniae D39V [8], partner 2 µg/mL	–	0.931	0.889	0.8

fitness, one replicate
Details	S. aureus DSM 20231 [6]	S. aureus Newman [7]	S. pneumoniae D39V [8]
first compound 4 µg/mL, partner 0.15 µg/mL	–	–	≥ 1
first compound 4 µg/mL, partner 0.3 µg/mL	–	–	0.939
first compound 4 µg/mL, partner 0.5 µg/mL	0.769	0.839	–
first compound 4 µg/mL, partner 1 µg/mL	0.735	0.882	–
first compound 4 µg/mL, partner 2 µg/mL	–	0.769	–
first compound 8 µg/mL, partner 0.15 µg/mL	–	–	0.944
first compound 8 µg/mL, partner 0.3 µg/mL	–	–	0.927
first compound 8 µg/mL, partner 0.5 µg/mL	0.735	0.817	–
first compound 8 µg/mL, partner 1 µg/mL	0.691	0.887	–
first compound 8 µg/mL, partner 2 µg/mL	–	0.787	–
first compound 16 µg/mL, partner 0.15 µg/mL	–	–	0.894
first compound 16 µg/mL, partner 0.3 µg/mL	–	–	0.93
first compound 16 µg/mL, partner 0.5 µg/mL	0.65	0.876	0.857
first compound 16 µg/mL, partner 1 µg/mL	0.704	0.777	0.731
first compound 16 µg/mL, partner 2 µg/mL	–	0.686	–
first compound 32 µg/mL, partner 0.0625 µg/mL	0.643	0.654	–
first compound 32 µg/mL, partner 0.125 µg/mL	0.736	0.629	–
first compound 32 µg/mL, partner 0.25 µg/mL	0.637	0.602	–
first compound 64 µg/mL, partner 0.0625 µg/mL	0.0659	0.0794	–
first compound 64 µg/mL, partner 0.125 µg/mL	0.0603	0.124	–
first compound 64 µg/mL, partner 0.25 µg/mL	0.0858	0.124	–

Details	Bliss interaction score
B. subtilis 168 [9]	0.042
S. aureus DSM 20231 [10]	-0.0719
S. aureus Newman [11]	0.0692
S. pneumoniae D39V [12]	0.052
